Among the data in ChEMBL document CHEMBL1201862, “PubChem BioAssay data set” (2004) are AC50, EC50 and IC50 values, retold here.

Activity calls are given as the source filed them.

Some targets named below: Cytochrome P450 2D6 (Homo sapiens, UniProt P10635); Cytochrome P450 2C9 (Homo sapiens, UniProt P11712); Cytochrome P450 3A4 (Homo sapiens, UniProt P08684).
Data set [1] concerns the target FAD-linked sulfhydryl oxidase ALR (Homo sapiens, UniProt P55789). Briefly: ALR-catalysed DTT oxidation blockers – biochemical, H2O2 detection, luminescence, cherry-pick, dose response (AID 493248).
Data set [2] can be described thus: luciferase reporter signal suppression in cells – H4 neuroglioma cells, luminescence, dose response (AID 1990). Type of data set: functional, cell-based. For orientation: Reporter assays use an easily measured gene product as a stand-in for the process of interest.
Data set [3] can be described thus: Luminescence Cell-Based Dose Response HTS to Identify Inhibitors of 5'UTR Stem-Loop Driven Prion Protein mRNA Translation in H4 Neuroglioblastoma Cells. [Related pubchem assays: 1827 (Project Summary), 1813 (Primary HTS)]. It counts as functional.
The nature of data set [4]: alpha-synuclein stem-loop luciferase translation blockers – H4 neuroglioma cells, luminescence, confirmation (AID 1988). It counts as functional, cell-based.
The target in another data set is T1, Cytochrome P450 1A2 (Homo sapiens, UniProt P05177).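 Note: PubChem cytochrome P450 panel assay, CYP1A2 panel member.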
T1 sequence (P05177 whole entry): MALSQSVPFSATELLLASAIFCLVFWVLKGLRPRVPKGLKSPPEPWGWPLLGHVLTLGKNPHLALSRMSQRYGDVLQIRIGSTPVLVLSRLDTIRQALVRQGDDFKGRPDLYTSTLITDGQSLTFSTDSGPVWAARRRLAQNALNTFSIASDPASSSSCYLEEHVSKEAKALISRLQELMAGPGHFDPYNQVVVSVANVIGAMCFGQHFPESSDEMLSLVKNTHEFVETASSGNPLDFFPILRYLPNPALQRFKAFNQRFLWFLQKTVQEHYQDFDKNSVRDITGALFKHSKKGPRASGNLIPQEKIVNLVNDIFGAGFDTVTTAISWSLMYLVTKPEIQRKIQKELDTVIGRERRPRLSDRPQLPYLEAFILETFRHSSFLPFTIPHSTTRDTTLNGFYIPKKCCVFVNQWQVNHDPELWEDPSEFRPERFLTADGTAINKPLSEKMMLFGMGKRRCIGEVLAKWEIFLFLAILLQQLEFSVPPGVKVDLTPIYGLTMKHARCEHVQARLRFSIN

The subject of another data set is H9c2. Description: cells. Type of data set: functional, cell-based. The note with it: Rattus norvegicus, H9c2, Myocardium.
Another data set deals with Cytochrome P450 2C19 (Homo sapiens, UniProt P33261). Briefly: Cytochrome panel assay with activity outcomes. Panel member name: p450-cyp2c19 Compounds with AC50 equal or less than 10 uM are considered active. Type of data set: functional.
Cytochrome P450 2C19, sequence (P33261 whole entry): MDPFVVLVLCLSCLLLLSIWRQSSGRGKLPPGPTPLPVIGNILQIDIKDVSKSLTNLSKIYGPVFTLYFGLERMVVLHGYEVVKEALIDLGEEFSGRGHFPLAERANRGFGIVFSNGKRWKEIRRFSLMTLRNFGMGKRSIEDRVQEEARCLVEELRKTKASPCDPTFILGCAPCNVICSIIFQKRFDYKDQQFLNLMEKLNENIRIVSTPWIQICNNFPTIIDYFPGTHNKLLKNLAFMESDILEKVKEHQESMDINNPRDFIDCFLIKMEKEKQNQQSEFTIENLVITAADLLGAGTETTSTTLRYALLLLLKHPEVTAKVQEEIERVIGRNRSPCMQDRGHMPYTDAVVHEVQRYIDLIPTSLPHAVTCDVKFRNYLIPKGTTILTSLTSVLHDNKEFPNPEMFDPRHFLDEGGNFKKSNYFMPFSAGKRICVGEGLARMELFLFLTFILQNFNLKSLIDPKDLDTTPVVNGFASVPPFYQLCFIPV
Data set [5] in a line: Trypanosoma cruzi growth suppression in host cells – NIH3T3 host cells, beta-gal luminescence, confirmation (AID 2044).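 Note: intracellular parasites grown in NIH/3T3 mouse fibroblasts as host cells; luminescent beta-galactosidase reporter signal from transgenic T. cruzi replicating inside host cells; inhibitors lower the luminescence signal.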 Type of data set: functional, cell-based.
A short description of data set [6]: NIH3T3 cell viability loss – ATP luminescence, mouse fibroblasts, counter-screen, dose response (AID 2010).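 Note: cells exposed to compound for about 90 hours before reading.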 Type of data set: functional, cell-based. A general note: Counterscreens check selectivity or assay interference.
Another data set relates to INS1. Briefly: INS-1E survival protection against cytokine death – cell-based, luminescence, retest, dose response (AID 449756).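 Note: cell death triggered by IL-1 beta plus TNF-alpha plus IFN-gamma mixture; protective hits raise ATP signal compared with cytokine alone wells.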 Type of data set: functional. The note with it: Rattus norvegicus.
Data set [7] in a line: Luminescence Cell-Based Dose Retest to Confirm Inhibitors of Cancer Stem Cells. [Related pubchem assays (depositor defined):AID2717, AID2721]. Type of data set: functional. As to conditions: Homo sapiens.
For data set [8], the system named is Streptococcus sp. 'group A'. Briefly: Streptococcus pyogenes SK(-)GAS viability under kanamycin – luminescence, BacTiterGlo, confirmation, counter-screen for streptokinase expression inhibitor project, dose response (AID 1900). It counts as functional, organism-based.
The target in the next data set is T2, Streptokinase A (Streptococcus pyogenes serotype M1, UniProt P10520).
T2 sequence (P10520 whole entry): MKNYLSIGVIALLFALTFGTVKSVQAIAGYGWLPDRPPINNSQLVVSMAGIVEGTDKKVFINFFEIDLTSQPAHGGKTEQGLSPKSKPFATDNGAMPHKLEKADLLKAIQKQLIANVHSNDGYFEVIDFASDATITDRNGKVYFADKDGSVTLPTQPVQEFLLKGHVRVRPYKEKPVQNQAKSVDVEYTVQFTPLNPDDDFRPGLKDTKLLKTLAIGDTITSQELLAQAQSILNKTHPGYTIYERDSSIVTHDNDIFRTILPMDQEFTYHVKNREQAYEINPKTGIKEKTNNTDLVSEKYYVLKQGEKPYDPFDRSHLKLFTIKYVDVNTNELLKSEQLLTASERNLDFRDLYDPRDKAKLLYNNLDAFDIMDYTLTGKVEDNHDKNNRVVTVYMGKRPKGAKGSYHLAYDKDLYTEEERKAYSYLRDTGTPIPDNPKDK
Description: viability-normalized secreted streptokinase activity reduction – plasminogen activation absorbance, OD405, dose response (AID 1914).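 Note: secreted streptokinase activity via plasminogen activation per viability signal from cell pellet.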 It counts as functional, Streptococcus pyogenes M1 GAS.

A further data set relates to Streptococcus. Briefly: GAS UMAA2166 growth inhibition – luminescence, BacTiterGlo, counter-screen for streptokinase expression inhibitor project, dose response (AID 1915).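 Note: potency for reduction of bacterial viability or growth.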 It counts as functional, organism-based.
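Throughout, for IC50: confirmatory concentration-response retest of ultra-high-throughput screening hits for modulation of myocardial damage; cell death induced by hydrogen peroxide oxidative stress; compound pretreatment for 60 min then peroxide exposure for 2 h; potency is for protecting the cells against peroxide damage rather than for killing them.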

Cytochrome P450 2D6, sequence (P10635 whole entry): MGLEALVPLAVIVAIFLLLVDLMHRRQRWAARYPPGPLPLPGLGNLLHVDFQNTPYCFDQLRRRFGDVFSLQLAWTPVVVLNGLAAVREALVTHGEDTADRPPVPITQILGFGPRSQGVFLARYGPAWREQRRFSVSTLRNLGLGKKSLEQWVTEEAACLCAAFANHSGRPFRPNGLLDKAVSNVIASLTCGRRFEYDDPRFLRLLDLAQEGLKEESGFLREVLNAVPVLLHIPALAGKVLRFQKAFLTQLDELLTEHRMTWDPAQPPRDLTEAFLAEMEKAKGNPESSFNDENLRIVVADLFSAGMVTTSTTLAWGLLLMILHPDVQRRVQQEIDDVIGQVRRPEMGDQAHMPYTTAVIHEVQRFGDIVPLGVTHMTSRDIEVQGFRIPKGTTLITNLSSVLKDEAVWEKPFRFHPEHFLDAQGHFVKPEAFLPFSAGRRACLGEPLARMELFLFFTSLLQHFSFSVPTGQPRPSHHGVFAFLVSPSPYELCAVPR
Cytochrome P450 2C9, sequence (P11712 whole entry): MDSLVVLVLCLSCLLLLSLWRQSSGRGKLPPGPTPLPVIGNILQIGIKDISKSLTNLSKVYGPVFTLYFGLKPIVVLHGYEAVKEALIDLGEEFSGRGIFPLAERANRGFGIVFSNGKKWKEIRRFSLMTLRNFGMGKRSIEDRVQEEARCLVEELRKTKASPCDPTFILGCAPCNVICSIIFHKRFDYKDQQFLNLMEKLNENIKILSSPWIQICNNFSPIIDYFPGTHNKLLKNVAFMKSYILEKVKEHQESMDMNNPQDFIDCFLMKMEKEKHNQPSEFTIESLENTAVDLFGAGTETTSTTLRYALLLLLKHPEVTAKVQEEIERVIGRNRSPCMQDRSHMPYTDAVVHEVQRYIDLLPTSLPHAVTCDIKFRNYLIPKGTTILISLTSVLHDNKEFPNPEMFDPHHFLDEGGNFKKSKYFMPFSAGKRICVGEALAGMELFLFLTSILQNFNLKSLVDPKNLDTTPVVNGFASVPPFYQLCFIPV
FAD-linked sulfhydryl oxidase ALR, sequence (P55789 whole entry): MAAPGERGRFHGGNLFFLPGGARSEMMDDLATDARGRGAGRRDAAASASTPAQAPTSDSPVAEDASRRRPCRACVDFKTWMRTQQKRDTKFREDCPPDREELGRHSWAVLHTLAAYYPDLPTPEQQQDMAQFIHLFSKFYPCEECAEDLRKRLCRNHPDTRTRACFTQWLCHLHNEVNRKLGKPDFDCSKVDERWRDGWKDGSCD
Cytochrome P450 3A4, sequence (P08684 whole entry): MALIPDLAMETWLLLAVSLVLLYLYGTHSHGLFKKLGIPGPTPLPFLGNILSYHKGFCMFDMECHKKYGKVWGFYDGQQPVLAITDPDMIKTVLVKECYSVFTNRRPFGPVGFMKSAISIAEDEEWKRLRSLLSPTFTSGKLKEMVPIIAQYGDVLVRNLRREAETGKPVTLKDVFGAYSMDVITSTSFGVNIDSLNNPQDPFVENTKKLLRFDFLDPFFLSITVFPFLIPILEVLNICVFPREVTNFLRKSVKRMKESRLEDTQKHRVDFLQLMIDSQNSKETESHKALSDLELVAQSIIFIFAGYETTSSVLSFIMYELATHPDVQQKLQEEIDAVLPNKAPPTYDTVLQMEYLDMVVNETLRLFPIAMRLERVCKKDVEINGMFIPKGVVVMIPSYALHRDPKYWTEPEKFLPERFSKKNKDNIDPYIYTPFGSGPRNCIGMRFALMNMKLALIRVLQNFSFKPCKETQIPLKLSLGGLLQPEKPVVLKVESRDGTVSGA

By AC50 is commonly meant the concentration at which the activity in the assay is half-maximal. Turning to `O=C(NCC(c1cccnc1)N1CCN(c2ccccc2)CC1)C1CCCCC1` (stereo not drawn), the AC50 in [1] was 19.4 µM (active).
What is called EC50 is the midpoint of the concentration-response curve. Consider `Cc1csc2ncnc(N3CCN(C(S)=Nc4ccc(C(F)(F)F)cc4)CC3)c12`, for which the EC50 in data set [2], in [3] and in [4] was > 120 µM (not active) throughout.
For the molecule `COC(=O)c1ccc(CSc2nc(O)c3cnn(-c4ccc(C)cc4)c3n2)o1`, the EC50 in data set [2] was 23.9 µM (active); in [3], > 120 µM (not active); in data set [4], > 120 µM (not active).
Take `O=C(NCCNS(=O)(=O)c1ccccc1Cl)c1cc(OCC(F)(F)F)ccc1OCC(F)(F)F`: the results for the concentration at half-maximal activity (AC50) on Cytochrome P450 2D6, on Cytochrome P450 1A2 and at Cytochrome P450 2C9 were 22.4 µM (inconclusive), 31.6 µM (inconclusive) and 12.6 µM (inconclusive), respectively.
For orientation: IC50 means the point on the concentration scale where inhibition reaches its midpoint. For `O=C(NCc1ccco1)C(c1ccccc1)N(C(=O)Cc1cccs1)c1ccccc1F` (stereo not drawn), the IC50 in the data set on H9c2 was > 79 µM (inactive).
Take `CCCCC(=O)NNC(=O)N1c2ccccc2Sc2ccccc21`: the AC50 in data set [1] is 0.919 µM (active).
Regarding `CCN(CC)Cc1c(O)c(Cl)cc2c3c(c(=O)oc12)CCCC3`, the AC50 result is “inconclusive” at Cytochrome P450 2C19, 11.2 µM (inconclusive) at Cytochrome P450 1A2 and 25.1 µM (inconclusive) on Cytochrome P450 2C9.
For `Cc1nc2cncnc2n(-c2ccccc2)c1=O`, the AC50 is 10 µM (inconclusive) at Cytochrome P450 1A2, 12.6 µM (inconclusive) at Cytochrome P450 3A4 and 39.8 µM (inconclusive) on Cytochrome P450 2C9.
In the case of `Cc1ccc(CN2CC34C=CC(O3)C(C(=O)NCc3ccc5c(c3)OCO5)C4C2=O)cc1` (stereo not drawn), the values for the half-maximal activity concentration (AC50) at Cytochrome P450 1A2 and at Cytochrome P450 2C9 were 17.8 µM (inconclusive) and 12.6 µM (inconclusive), respectively.
In the case of `CCC[N+]1(CC#CCC(c2ccccc2)c2ccccc2)CCCCC1`, the concentration giving a half-maximal response (EC50) is 0.767 µM (active) in [5] and > 60 µM (not active) in data set [6]. In addition, the concentration at half-maximal activity (AC50) with INS1 is 1.67 µM (active).
On to `Fc1ccc(-c2cc(-c3nnc4n3CCCCC4)c3ccccc3n2)cc1`, for which, in the data set with INS1, the AC50 is 11.2 µM (active).
With `N#Cc1c(-c2ccco2)cc(-c2ccccn2)nc1N`, the half-maximal inhibitory concentration (IC50) with H9c2 is 14.3 µM (active).
Consider `CCN(c1ccc(NC(=O)COC(=O)c2ccc([N+](=O)[O-])o2)cc1)C(C)C`, for which the IC50 with H9c2 was > 79 µM (inactive).
As for `CN1CCN(c2ncc3nc(-c4cccc(C#N)c4)c(=O)n(C)c3n2)CC1`, the results for the AC50 at Cytochrome P450 1A2 and at Cytochrome P450 2C9 were 12.6 µM (inconclusive) and 39.8 µM (inconclusive), respectively.
Consider `O=C(c1ccc(Cl)cc1)c1c[nH]c(C(=O)NNc2ccccc2)c1`, for which the AC50 in [7] is 1.34 µM (active).
Take `Cn1c(=O)[nH]c(=O)c2c1nc(N1CCC(Cc3ccccc3)CC1)n2Cc1ccccc1`: the EC50 in [2] is 19.4 µM (active); in data set [8] it was 4.39 µM (active); in data set [3], > 120 µM (not active); in data set [4], 56.4 µM (active); at Streptokinase A, 18 µM (active); in the data set on Streptococcus it was > 150 µM (not active).
With `Nc1nc(OCC2CCCCC2)c2nc[nH]c2n1`, the values for the concentration giving a half-maximal response (EC50) in data set [2], in [3] and in data set [4] were 16.5 µM (active), 15.8 µM (active) and 13.7 µM (active), respectively.
Turning to `O=C1C2C3C=CC(C3)C2C(=O)N1/N=C/c1cn(Cc2ccccc2)c2ccccc12` (stereo not drawn), the EC50 was 11 µM (active) in [2], 12.5 µM (active) in data set [3] and 2.2 µM (active) in data set [4]. The AC50 was 8.91 µM (inconclusive) at Cytochrome P450 2C19 (read-out: AC50) and 39.8 µM (inconclusive) at Cytochrome P450 2D6.
Take `Cn1c(-c2ccc3nc(N)sc3c2)nc2cc(N)ccc21`: the AC50 in data set [1] is 0.384 µM (active).
`Cc1ccccc1CN(C)CC(=O)Nc1cccc(S(=O)(=O)N(C)c2ccccc2)c1`: the EC50 in [2], in data set [3] and in data set [4] was > 120 µM (not active) in each case.
As to `CCN(CC)c1ccc(CN2CCCCCC2)cc1`, the AC50 in data set [1] was 3.84 µM (active).
Take `c1ccc2c(CCNc3ncnc4nc[nH]c34)c[nH]c2c1`: in [1], the AC50 was 3.85 µM (active).
Turning to `COc1ccc(CCNC(=O)c2cc3c(=O)n4cccc(C)c4nc3n(Cc3ccco3)c2=N)cc1OC`, in the data set on INS1, the AC50 was 8.24 µM (active).
As to `COc1cc2c(cc1OC)C(C(=O)Nc1ccccn1)C(c1cccnc1)N(C)C2=O` (stereo not drawn), the AC50 at Cytochrome P450 1A2 is 25.1 µM (inconclusive); on Cytochrome P450 2C9, 11.2 µM (inconclusive).
For `CC(/C=N\NC(=O)Cn1c(C)nc2ccccc21)=C\c1ccccc1`, the concentration at half-maximal activity (AC50) on Cytochrome P450 2C19 (read-out: AC50) was 0.562 µM (inconclusive); at Cytochrome P450 1A2, 8.91 µM (inconclusive).
Regarding `Cc1ccc(/N=C2\C=C(O)C(=O)c3ccccc32)c(C)c1`, the AC50 with INS1 was 2.06 µM (active).
For `COc1ccc(C(=O)N2CCC3(CC2)CCN(c2ccncc2)CC3)cc1`, the concentration at half-maximal activity (AC50) at Cytochrome P450 2D6 was 15.8 µM (inconclusive); on Cytochrome P450 1A2, 39.8 µM (inconclusive); on Cytochrome P450 3A4 it was 15.8 µM (inconclusive).
As to `CCOC(=O)c1[nH]c2ccccc2c1NC(=O)c1ccc(S(=O)(=O)N2CCCCC2)cc1`, the EC50 in [2] was 18.7 µM (active); in data set [3], > 120 µM (not active); in data set [4] it was 83.1 µM (active).
Consider `CCCCn1cnc2c(c(CC#N)nn2-c2ccccc2)c1=N`, for which the AC50 on Cytochrome P450 2C19 (read-out: AC50) was 6.31 µM (inconclusive); at Cytochrome P450 1A2 it was 1 µM (inconclusive).
Regarding `Cc1c(C(=O)NCCCN2CCCCC2)oc2ccc3c(c12)C(O)CC1(CCCCC1)O3` (stereo not drawn), the EC50 in data set [2], in data set [3] and in data set [4] was > 120 µM (not active) throughout.
As for `COc1cc(/C=N/NC(=O)C2C3CCCCC32C)cc(Br)c1O` (stereo not drawn), the half-maximal activity concentration (AC50) in data set [1] is 0.272 µM (active).
With `CCN(CCCNC(=O)C1CCC(=O)N1Cc1ccc(C)cc1)c1cccc(C)c1` (stereo not drawn), the half-maximal activity concentration (AC50) in [1] was 0.677 µM (active).
For the molecule `CC(=O)Oc1ccc(C(=O)Nc2ccc(C3(C#N)CCCC3)cc2)cc1`, in data set [7], the concentration at half-maximal activity (AC50) was 1.83 µM (active).
Regarding `CCCC/C=C/C(NC(=O)C(C)(C)C)c1ccccc1` (stereo not drawn), the results for the AC50 on Cytochrome P450 2D6, at Cytochrome P450 1A2 and on Cytochrome P450 2C9 were 20 µM (inconclusive), 20 µM (inconclusive) and 39.8 µM (inconclusive), respectively.
Regarding `CCN1CCN(c2cc3nc(C)n(Cc4ccccc4)c(=O)c3cc2NC(=O)c2ccccc2F)CC1`, the EC50 was 8.04 µM (active) in data set [2], 8.79 µM (active) in data set [3] and 8.28 µM (active) in data set [4].
With `CCC(C)(C)n1nnnc1CN(Cc1cccs1)Cc1cc2cc(OC)ccc2nc1O`, the results for the half-maximal effective concentration (EC50) in data set [2], in data set [3] and in data set [4] were 30.6 µM (active), > 120 µM (not active) and > 120 µM (not active), respectively.
On to `CCN(CC)c1ccc(/C=N/NC(=O)c2cccc(N3CCCC3=O)c2)cc1`, for which the concentration at half-maximal activity (AC50) in data set [1] is 2.14 µM (active).
Take `NCCCCCCCCCCNS(=O)(=O)c1cccc2c(Cl)cccc12`: on Cytochrome P450 1A2, the AC50 was 15.8 µM (inconclusive).
With `O=C(Nc1ncnc2c1C(c1ccccc1)c1c(ccc3ccccc13)O2)c1ccccc1` (stereo not drawn), the AC50 with INS1 was 20.6 µM (active).
Take `CC(C)c1cc(-c2cc(-c3ccccc3)on2)nc(NC2CCCC2)n1`: in data set [7], the AC50 is 10.1 µM (active).
In the case of `CC(C)(C)c1ccc(NC(=O)N2CCCN(c3c(Cl)cncc3Cl)CC2)cc1`, the AC50 in data set [7] is 0.601 µM (active).
